Where two headings read alike, the source gives them in different places. Marks after values point to notes of the source that are not given here.
Key:
[1] = tested on: EpiIntestinal model; settings: apical to basolateral, ref Ayehunie et al. (2005); cited from earlier work
[2] = Transport study across Caco-2 cell layers; settings: human, Caco-2
Method: Human colorectal adenocarcinoma cells (Caco-2, HTB-37) were obtained from American Type Culture Collection (ATCC, Manassas, VA). Cells were cultured in a humidified incubator (37°C, 5% CO2) in Dulbecco’s modified Eagle’s medium (DMEM) supplemented with 10% heat-inactivated fetal bovine serum (Gibco, Thermo Fisher Scientific, Waltham, MA), 1% non-essential amino acids (Gibco) and 1% penicillin/streptomycin (Sigma). For experiments, Caco-2 cells below passage number 50 were used within 10 passages. They were harvested at 80% confluence using Trypsin/EDTA (0.25%/0.05%; PAN Biotech, Aidenbach, Germany) and seeded at a density of 4 × 10^5 cells/cm^2 into inserts with a polycarbonate membrane (0.4 µm pore, Corning, New York, NY). After 21 days of differentiation (using 500 µl cell culture medium in the apical and 1500 µl in the basolateral compartment), monolayer integrity was determined by measuring transepithelial electrical resistance (TEER) with a Millicell ERS Volt-Ohm meter (Millipore, Bedford, MA).
(§1) Transport studies were performed in Caco-2 cells, hiPSC-derived IECs and EpiIntestinal microtissues. To that end, Caco-2 cell layers were differentiated for 21 days and hiPSCs were differentiated into IEC layers for 26 days, as described above. EpiIntestinal microtissues were subjected to transport studies 1 day after arrival. […] For all models, PFAS transport was assessed in apical to basolateral, and basolateral to apical direction using HBSS containing a mixture of PFASs containing 1 µM of each PFAS. See Supplementary Data for a detailed description of the method used for the transport studies of the model compounds and PFASs.
(§2) Prior to exposure to the transport study compounds, the cells were washed with transport medium (HBSS; Sigma). […] 100 µL aliquots were collected from the basolateral compartment and replaced with the same volume HBSS at settled time points (0, 15, 30 and 60 min). For basolateral to apical transport in the EpiIntestinal microtissues, 0.2 mL HBSS was added to the apical compartment and 0.5 mL HBSS containing a mixture of PFASs containing 1 µM of each PFAS, was added to the basolateral compartment. 100 µL aliquots were collected from the apical compartment and replaced with the same volume of HBSS at settled time points (0, 15, 30 and 60 min). For apical to basolateral transport across the Caco-2 cell layers and hiPSC-derived IEC layers, 1.2 mL HBSS was added to the basolateral compartment and 0.4 mL HBSS containing either model compounds (10 µM) or a mixture of PFASs containing 1 µM of each PFAS, was added to the apical compartment. 100 µL aliquots were collected from the basolateral compartment and replaced with the same volume of HBSS at settled time points (0, 7.5, 15, 30 and 60 min for the model compounds with both models and the PFASs with the hiPSC-derived IEC layers and 0, 15, 30 and 60 min for PFASs with the Caco-2 cell layers). For basolateral to apical transport, 0.4 mL HBSS was added to the apical compartment and 1.2 mL HBSS containing 10 µM of the model compounds or a mixture of PFASs containing 1 µM of each PFAS, was added to the basolateral compartment. 100 µL aliquots were collected from the apical compartment and replaced with the same volume of HBSS at settled time points (0, 7.5, 15, 30 and 60 min for the model compounds with both models and the PFASs with the hiPSC-derived IEC layers and 0, 15, 30 and 60 min for PFASs with the Caco-2 cell layers). After 60 minutes, all liquid was collected from the apical and basolateral compartment and the cells were lysed in 200 µL RIPA buffer (Thermo Fisher Scientific), and chemicals were quantified in the different compartments (apical, basolateral and cells) in order to calculate the mass balance.
(§3) The apparent permeability coefficient (Papp, cm/s) was calculated using the following equation: […]

[3] = tested on: hiPSC-derived IEC layers; set-up: method as in Kabeya et al. ([2020]); settings: apical to basolateral, ref Kabeya et al. ([2020]); cited from earlier work
[4] = ref Ayehunie et al. (2005); cited from earlier work
[5] = Transport study across hiPSC-derived IEC layers; settings: human
Method: For differentiation into IECs, definitive endoderm cells were subsequently differentiated into intestinal stem cells by changing medium into DMEM/F12 containing 2% fetal bovine serum, 1% GlutaMAX (Gibco) and 250 ng/ml FGF2 (R&D Systems). After 4 days, cells were dissociated using Accutase and seeded onto polyester Transwell inserts (0.4 µm, Corning) coated with Growth Factor Reduced Matrigel #356231. Cells were cultured for 7 days in intestinal differentiation medium (DMEM/F-12 containing 2% fetal bovine serum, 1% non-essential amino acids (Gibco), 1 × B27 (Gibco), 1 × N2 (Gibco), 1% penicillin/streptomycin (Gibco) and 2 mM L-glutamine (Gibco)) supplemented with 20 ng/ml EGF (R&D Systems) and 30 µM Forskolin (Sigma). ROCK inhibitor, y-27632 (final concentration 10 µM; Stem Cell Technologies), was added during the initial 24 h after seeding to reduce cell death. The cells were subsequently cultured for 12 days in intestinal differentiation medium supplemented with 20 ng/ml EGF, 30 µM Forskolin, 5 µM 5-aza-2′-deoxycytidine (Sigma), 20 µM PD98059 (Stem Cell Technologies) and 0.5 µM A-83–01 (Sigma). The medium was refreshed every 2–3 days. Barrier integrity was determined by measuring apical to basolateral translocation of Lucifer yellow (see Supplementary Data for a detailed description).
as §1
as §2, with “layers).” for “layers). After 60 minutes, all liquid was collected from the apical and basolateral compartment and the cells were lysed in 200 µL RIPA buffer (Thermo Fisher Scientific), and chemicals were quantified in the different compartments (apical, basolateral and cells) in order to calculate the mass balance.”

[6] = tested on: Caco-2 model; settings: cited from earlier work
[7] = Transport study across EpiIntestinal microtissues; settings: human
Method: The human EpiIntestinal small intestinal microtissues, consisting of epithelial cells and an underlying lamina propria containing intestinal fibroblasts, were obtained from MatTek Life Sciences (Ashland, USA). Cell culture inserts (8.8 mm ID) were placed in 12-well plates and cells were maintained in 100 µl maintenance medium (MatTek Life Sciences) in the apical compartment and 5 ml maintenance medium in the basolateral compartment upon arrival. The transport studies were performed 1 day after arrival.
as §1, §2, §3
where A is the surface area (cm^2), dQ is the amount of the compound transported (nmol) over the respective time interval dt (s) and C0 is the initial concentration in the donor compartment (µM).

Row | SMILES | Papp A→B at 60 min, 10 µM [2] [×10⁻⁶ cm/s] | Papp B→A at 60 min, 10 µM [2] [×10⁻⁶ cm/s] | Papp A→B at 60 min, 10 µM [5] [×10⁻⁶ cm/s] | Papp B→A at 60 min, 10 µM [5] [×10⁻⁶ cm/s] | Average Papp A–B [1] | Fa (fraction absorbed in humans) [4] [%] | Average Papp A - B ([6]; ref Ayehunie et al. 2018) [×10⁻⁶ cm/s] | Average Papp A - B ([6]; ref Yazdanian et al. 1998) [×10⁻⁶ cm/s] | Papp A→B at 60 min, 1 µM [2] [×10⁻⁶ cm/s] | Papp B→A at 60 min, 1 µM [2] [×10⁻⁶ cm/s] | efflux ratio at 60 min, 1 µM [2] | Papp A→B at 60 min, 1 µM [7] [×10⁻⁶ cm/s] | Papp B→A at 60 min, 1 µM [7] [×10⁻⁶ cm/s] | efflux ratio at 60 min, 1 µM [7] | Papp A→B at 60 min, 1 µM [5] [×10⁻⁶ cm/s] | Papp B→A at 60 min, 1 µM [5] [×10⁻⁶ cm/s] | efflux ratio at 60 min, 1 µM [5] | other results
1 | O=S(=O)(O)C(F)(F)C(F)(F)C(F)(F)C(F)(F)C(F)(F)C(F)(F)F [PFHxS, perfluorohexane sulfonate] |  |  |  |  |  |  |  |  | 8.78 ± 1.76 | 11.6 ± 0.2 | 1.33 | 12.5 ± 0.78 | 14.1 ± 0.67 | 1.13 | 3.95 ± 0.47 | 6.71 ± 0.43 | 1.7 | 
2 | O=S(=O)(O)C(F)(F)C(F)(F)C(F)(F)C(F)(F)C(F)(F)C(F)(F)C(F)(F)C(F)(F)F [PFOS, perfluorooctane sulfonate] |  |  |  |  |  |  |  |  | 2.88 ± 0.2 | 1.06 ± 11 | 0.37 | 5.97 ± 0.05 | 3.31 ± 0.22 | 0.55 | 0.63 ± 0.08 | 0.82 ± 0.17 | 1.31 | 
3 | CC(C)NCC(O)COc1ccc(CC(N)=O)cc1 (stereo not shown) [Atenolol, atenolol] |  |  |  |  |  | 50 |  |  |  |  |  |  |  |  |  |  |  | 
4 | CCOC(=O)[C@H](CCc1ccccc1)N[C@@H](C)C(=O)N1CCC[C@H]1C(=O)O [Enalapril, enalapril] | 0.28 ± 0.04 | 0.43 ± 0.05 | 2.95 ± 0.41 | 3.68 ± 0.1 | 0.4 ± 0.2^a × 10^–6 cm/s | 40 | 0.2 |  |  |  |  |  |  |  |  |  |  | efflux ratio at 60 min, 10 µM [2]: 1.55; Average Papp A–B [3]: 1.93 ± 0.46 × 10^–6 cm/s; efflux ratio at 60 min, 10 µM [5]: 1.25; Average Papp A - B ([6]; ref Grès et al. 1998): 0.62 ×10⁻⁶ cm/s; Average Papp A - B ([6]; ref Kabeya et al. 2020): 0.19 ×10⁻⁶ cm/s; Average Papp A - B ([6]; ref Logoyda et al. 2018): 1.31 ×10⁻⁶ cm/s
5 | C=C[C@H]1C[N@@]2CC[C@H]1C[C@@H]2[C@@H](O)c1ccnc2ccc(OC)cc12 [Quinidine, quinidine] |  |  | 22.3 ± 0.4 | 25.5 ± 1.17 | 7.9 ± 2.7^a × 10^–6 cm/s |  |  |  |  |  |  |  |  |  |  |  |  | 
6 | O=C(O)C(F)(F)C(F)(F)C(F)(F)C(F)(F)C(F)(F)C(F)(F)C(F)(F)C(F)(F)F [PFNA, perfluorononanoic acid] |  |  |  |  |  |  |  |  | 4.55 ± 0.56 | 3.14 ± 0.33 | 0.69 | 8.48 ± 0.57 | 7.51 ± 0.5 | 0.89 | 1.95 ± 0.27 | 2.88 ± 0.28 | 1.48 | 
7 | O=C(O)C(F)(F)C(F)(F)C(F)(F)C(F)(F)C(F)(F)C(F)(F)C(F)(F)F [PFOA, perfluorooctanoic acid] |  |  |  |  |  |  |  |  | 4.23 ± 0.41 | 5.75 ± 0.97 | 1.36 | 7.31 ± 0.43 | 6.99 ± 0.82 | 0.96 | 3.27 ± 0.45 | 5.3 ± 0.42 | 1.62 | 

Second part, led by results:

Row | Papp A→B at 60 min, 10 µM [2] [×10⁻⁶ cm/s] | Papp B→A at 60 min, 10 µM [2] [×10⁻⁶ cm/s] | Papp A→B at 60 min, 10 µM [5] [×10⁻⁶ cm/s] | Papp B→A at 60 min, 10 µM [5] [×10⁻⁶ cm/s] | SMILES | Average Papp A–B [1] | Fa (fraction absorbed in humans) [4] [%] | Average Papp A - B ([6]; ref Ayehunie et al. 2018) [×10⁻⁶ cm/s] | Average Papp A - B ([6]; ref Yazdanian et al. 1998) [×10⁻⁶ cm/s] | Papp A→B at 60 min, 1 µM [2] [×10⁻⁶ cm/s] | Papp B→A at 60 min, 1 µM [2] [×10⁻⁶ cm/s] | efflux ratio at 60 min, 1 µM [2] | Papp A→B at 60 min, 1 µM [7] [×10⁻⁶ cm/s] | Papp B→A at 60 min, 1 µM [7] [×10⁻⁶ cm/s] | efflux ratio at 60 min, 1 µM [7] | Papp A→B at 60 min, 1 µM [5] [×10⁻⁶ cm/s] | Papp B→A at 60 min, 1 µM [5] [×10⁻⁶ cm/s] | efflux ratio at 60 min, 1 µM [5] | other results
8 | 0.42 ± 0.03 | 3.09 ± 0.07 | 1.95 ± 0.02 | 7.17 ± 0.27 | CCCC(=O)Nc1ccc(OCC(O)CNC(C)C)c(C(C)=O)c1 (stereo not shown) [Acebutolol, acebutolol] | 0.4 ± 0.1^a × 10^–6 cm/s | 40 | 0.4 | 0.51 |  |  |  |  |  |  |  |  |  | efflux ratio at 60 min, 10 µM [2]: 7.37; Average Papp A–B [3]: 2.35 ± 0.88 × 10^–6 cm/s; efflux ratio at 60 min, 10 µM [5]: 3.67; Average Papp A - B ([6]; ref Kabeya et al. 2020): 0.35 ×10⁻⁶ cm/s; Average Papp A - B ([6]; ref Liang et al. 2000): 0.51 ×10⁻⁶ cm/s
9 | 17.9 ± 1.39 | 24.5 ± 0.94 |  |  | CC(=O)CC(c1ccccc1)c1c(O)c2ccccc2oc1=O (stereo not shown) [Warfarin, warfarin] | 36.7 ± 16.8^a × 10^–6 cm/s |  | 28.6 | 21.1 |  |  |  |  |  |  |  |  |  | Average Papp A - B ([6]; ref Artursson et al. 1991): 38.3 ×10⁻⁶ cm/s; Average Papp A - B ([6]; ref Gschwind et al. 2013): 22.7 ×10⁻⁶ cm/s
10 | 11.8 ± 1.07 | 8.13 ± 0.12 | 26.7 ± 1.4 | 17.9 ± 0.93 | CC(C)NCC(O)COc1cccc2ccccc12 (stereo not shown) [Propranolol, propranolol] | 9.4 ± 5.4^b × 10^–6 cm/s |  | 12.9 | 21.8 |  |  |  |  |  |  |  |  |  | Average Papp A - B ([6]; ref Artursson et al. 1991): 41.9 ×10⁻⁶ cm/s; Average Papp A - B ([6]; ref Grès et al. 1998): 34.4 ×10⁻⁶ cm/s; Average Papp A - B ([6]; ref Logoyda et al. 2018): 36.13 ×10⁻⁶ cm/s; Average Papp A - B ([6]; ref Nožinić et al. 2010): 0.12 ×10⁻⁶ cm/s; Average Papp A - B ([6]; ref Walgren et al. 1999): 35.3 ×10⁻⁶ cm/s

Source: article PMC11489206, “Transport of perfluoroalkyl substances across human induced pluripotent stem cell-derived intestinal epithelial cells in comparison with primary human intestinal epithelial cells and Caco-2 cells” (Archives of Toxicology, 2024)
